Results as given in US12467927B2, “Fluorescence resonance energy transfer (FRET) nanoprobe and preparation method and use thereof” (QILU UNIVERSITY OF TECHNOLOGY, priority 2022, dated 2025).

Test: Zeta potential determination
Format: physicochemical
Protocol: Size and Zeta potential determinations were conducted on a Zetasizer Nano ZS (ZEN 3600, Malvern Instruments Ltd.). Transmission electron microscopy (TEM) images were determined by a transmission electron microscope (JEM-2100, JEOL). The fluorescence was measured by an F-4600 Fluorescence Spectrophotometer (Japan); the confocal fluorescence images of cells were obtained by a Nikon laser confocal microscope (Nikon, Japan).
The synthesized HMSN were characterized by TEM and dynamic light scattering (DLS). […] Meanwhile, the particle size distribution measured by DLS was mainly around 140 nm (FIG. 2). The experimental data was matched up with each other. […] The particle size of PAMAM (G=1.5) dendrimer was characterized by TEM. […] The particle size distribution measured by DLS was around 8 nm (FIG. 5). […] Meanwhile, to prevent the early leakage of DOX, the DOX was encapsulated by the RVRR peptide and PAMAM/TPE. To verify the successful encapsulation of HMSN/DOX, TEM characterization was conducted. […] Characterized by DLS and Zeta potential, the particle size distribution of the transparent thin layer structure was around 160 nm (FIG. 7), and a Zeta potential was 3.25 mV (FIG. 8).

Row | SMILES | zeta potential
1 | COc1cccc2c1C(=O)c1c(O)c3c(c(O)c1C2=O)C[C@@](O)(C(=O)CO)C[C@@H]3O[C@H]1C[C@H](N)[C@H](O)[C@H](C)O1 [DOX, doxorubicin] | 24.3 mV
2 | O=C(O)c1ccc(C(=C(c2ccccc2)c2ccccc2)c2ccccc2)cc1 [TPE-COOH, 1-(4-carboxyphenyl)-1,2,2-triphenylethylene] | −8.6 mV
